Test results taken from patent US12595253B2, “Benzamides of pyrazolylamino-pyrimidinyl derivatives, and compositions and methods thereof” (LYNK PHARMACEUTICALS CO. LTD., priority 2019, dated 2026).

Experiments:
JAK2 = target: T1, JAK2 (Homo sapiens, UniProt O60674); experiment: JAK2 microfluidic kinase assay (Caliper EZ Reader II, FAM labeled peptide substrate); type: biochemical
T1 construct: purchased Carna Biosciences
How it was run: (§1)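 Microfluidic mobility-shift assay on Caliper EZ Reader II, FAM-labelled peptide phosphorylation, in 50 mM HEPES, 0.01% Brij35, 10 mM MgCl2, 2 mM DTT, 1% DMSO; enzyme conditions set for 10% substrate conversion.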

[1] = Liver microsomes study, Phase I stability (RLM); type: in vitro ADME, rat; details: pH 7.4; rat liver microsomes 0.5 mg/mL, 1 μM test article; read-out: RLM Clint
How it was run: (§2)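 Phase I turnover was followed by LC/MS/MS of parent compound remaining at 0, 10, 30 and 90 min in NADPH-fortified rat or human microsomes, with cold acetonitrile quench. Half-life and intrinsic clearance were derived from the log-linear depletion slope and the inverse protein concentration.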

JAK1 = target: T2, JAK1 (Homo sapiens, UniProt P23458); experiment: JAK1 microfluidic kinase assay (Caliper EZ Reader II, FAM labeled peptide substrate); type: biochemical
T2 construct: purchased Carna Biosciences
How it was run: as §1

[2] = Rat pharmacokinetic study (intravenous and oral); type: in vivo; details: male, plasma, Sprague-Dawley rats, solution
Description: Pharmacokinetic profile of test articles in rodent were evaluated in fasted male ICR mouse and Sprague-Dawley rats. […] Typically, mice were dosed with 2 mg/kg and 10 mg/kg by intravenous injection and oral gavage, respectively. Rats were dosed with 1 mg/kg and 5 mg/kg by intravenous injection and oral gavage, respectively. Beagle dogs were dosed with 1 mg/kg and 5 mg/kg by intravenous injection and oral gavage, respectively. After dosing, blood samples were collected at each time point. For IV injection group, time points were set at 5, 15, 30 min, and then 1, 2, 4, 8 and 24 hours after dosing. For oral gavage group, timepoints were set at 15, 30 m, and then 1, 2, 4, 8, and 24 hours. Blood was collected into appropriately labeled tubes containing K2EDTA as the anticoagulant. Plasma was obtained within 1 hours of blood collection by centrifugation at 8000×g and 4° C. for 6 minutes, and then stored at −20° C. until analyzed by LCMS/MS for quantification.

[3] = Liver microsomes study, Phase I stability (HLM); type: in vitro ADME, human; details: pH 7.4; human liver microsomes 0.5 mg/mL, 1 μM test article; read-out: HLM Clint
How it was run: as §2

FLT3D835Y = target: T3, FLT3D835Y (Homo sapiens, UniProt P36888, D835Y); experiment: FLT3D835Y microfluidic kinase assay; type: biochemical
T3 construct: purchased Carna Biosciences
T3 sequence (P36888 27-993 D835Y): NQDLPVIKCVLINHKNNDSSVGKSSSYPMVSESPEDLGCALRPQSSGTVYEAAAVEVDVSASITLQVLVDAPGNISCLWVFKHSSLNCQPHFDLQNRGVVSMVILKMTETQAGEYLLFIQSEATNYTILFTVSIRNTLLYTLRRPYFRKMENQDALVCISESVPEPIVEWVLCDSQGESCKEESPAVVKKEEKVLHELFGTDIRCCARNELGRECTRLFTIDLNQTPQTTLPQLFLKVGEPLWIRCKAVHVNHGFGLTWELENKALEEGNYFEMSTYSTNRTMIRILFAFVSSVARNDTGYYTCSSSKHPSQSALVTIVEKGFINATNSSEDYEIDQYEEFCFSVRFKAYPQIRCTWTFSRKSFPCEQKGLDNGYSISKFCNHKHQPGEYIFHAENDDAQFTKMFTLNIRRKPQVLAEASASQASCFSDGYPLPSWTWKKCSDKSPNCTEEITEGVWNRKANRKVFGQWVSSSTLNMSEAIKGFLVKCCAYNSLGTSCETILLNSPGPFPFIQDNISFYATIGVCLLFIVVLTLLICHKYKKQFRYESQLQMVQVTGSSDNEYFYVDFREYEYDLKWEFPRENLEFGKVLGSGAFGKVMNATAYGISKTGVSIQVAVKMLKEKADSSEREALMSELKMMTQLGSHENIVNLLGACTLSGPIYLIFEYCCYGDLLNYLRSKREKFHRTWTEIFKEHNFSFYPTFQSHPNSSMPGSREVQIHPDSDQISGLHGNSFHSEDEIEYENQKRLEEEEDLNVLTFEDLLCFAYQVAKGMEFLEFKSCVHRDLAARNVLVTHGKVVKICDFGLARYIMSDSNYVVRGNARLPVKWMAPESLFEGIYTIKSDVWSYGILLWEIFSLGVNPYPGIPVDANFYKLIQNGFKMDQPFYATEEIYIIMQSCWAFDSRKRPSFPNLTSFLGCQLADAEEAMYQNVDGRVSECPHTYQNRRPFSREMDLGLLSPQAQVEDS
Description: Compounds were tested against FLT3, FLT3ITD and FLT3D835Y.
Assay Formats: FLT3 activity was determined in the reaction buffer 50 mM HEPES, 10 mM MgCl2 and 2 mM DTT by a microfluidic assay. The phosphorylation of a FAM labeled peptide substrate was monitored in the Caliper EZ Reader II (Perkin Elmer). The assay condition for each batch of enzyme (Carna Biosciences) was optimized to obtain 10% conversion rate of peptide substrate.
The test compounds were dissolved in DMSO to a stock concentration of 10 mM. 3-fold serially diluted compounds with top concentration of 5 μM were pre-incubated with FLT3, FLT3ITD or FLT3D835Y for 10 min at ambient temperature. The final DMSO concentration of assay mixture was 1%. […] The reaction was stopped by adding 50 mM EITA. The reaction time for FLT3, FLT3ITD and FLT3D8335Y was 30 min, 40 min and 40 min, respectively.
And the well without compound but with equivalent DMSO was defined as no inhibition. The percent inhibition was calculated by the following formula. % Inhibition=(Conversionmax−Conversionsample)/(Conversionmax−Conversionmin)*100 • Conversionmax means the conversion rate in the positive well without addition of compound • Conversionmin means the conversion rate in the well without addition of enzyme • Conversionsample means the conversion rate of test compounds
The dose-response (percent inhibition) curve was plotted and IC50 values were determined by GraphPad software.

CYP1A2 = target: T4, CYP1A2 (Homo sapiens, UniProt P05177); experiment: CYPs inhibition in pooled human liver microsomes, probe substrate Phenacetin; type: in vitro ADME
T4 construct: 0.2 mg/mL human liver microsomes was pre-incubated in 180 μL reaction mixture; from tissue; host or cells: pooled human liver microsomes
T4 sequence (P05177 1-516): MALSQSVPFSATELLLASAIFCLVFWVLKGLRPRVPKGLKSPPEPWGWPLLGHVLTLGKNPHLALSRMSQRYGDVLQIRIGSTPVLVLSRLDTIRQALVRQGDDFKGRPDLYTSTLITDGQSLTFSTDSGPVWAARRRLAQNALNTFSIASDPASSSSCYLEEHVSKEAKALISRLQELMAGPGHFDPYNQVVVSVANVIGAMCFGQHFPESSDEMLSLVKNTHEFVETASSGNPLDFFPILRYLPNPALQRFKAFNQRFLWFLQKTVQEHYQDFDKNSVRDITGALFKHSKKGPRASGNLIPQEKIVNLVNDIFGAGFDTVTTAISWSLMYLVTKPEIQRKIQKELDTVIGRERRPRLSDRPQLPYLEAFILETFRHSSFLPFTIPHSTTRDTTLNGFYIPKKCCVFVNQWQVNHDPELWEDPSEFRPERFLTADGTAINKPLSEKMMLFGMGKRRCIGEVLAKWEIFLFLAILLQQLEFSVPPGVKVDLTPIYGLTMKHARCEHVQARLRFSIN
Description: (§3) The inhibitory potential of test articles in pooled human liver microsomes was evaluated by the method using a cocktail of CYP substrates. […] For the negative control well, the test articles was replaced with 20 μL reaction buffer. After 10 min of pre-incubation at 37° C., 20 μL 10 mM NADPH cofactor was added to the pre-reaction mixtures. After another 10 min incubation, the reaction was stopped by adding 400 μL of ice cold acetonitrile solution containing tolbutamide and labetalol served as internal standards. The incubation mixtures were centrifuged at 4000×g for 20 min, and then the supernatants were analyzed by LC-MS/MS after dilution. SigmaPlot was applied to plot % control activity versus the test compound concentrations, and for non-linear regression analysis of the data. IC50 values of test articles were determined using 3-parameter logistic equation.

CYP2C9 = target: T5, CYP2C9 (Homo sapiens, UniProt P11712); experiment: CYPs inhibition in pooled human liver microsomes, probe substrate Diclofenac; type: in vitro ADME
T5 construct: 0.2 mg/mL human liver microsomes was pre-incubated in 180 μL reaction mixture; from tissue; host or cells: pooled human liver microsomes
Description: as §3

TYK2 = target: T6, TYK2 (Homo sapiens, UniProt P29597); experiment: TYK2 microfluidic kinase assay (Caliper EZ Reader II, FAM labeled peptide substrate); type: biochemical
T6 construct: purchased Carna Biosciences
How it was run: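 First, serially diluted compounds (top 5 μM, 3-fold steps, 1% DMSO final) sit with enzyme 10 min at ambient temperature. Then the kinase reaction runs in HEPES buffer with 10 mM MgCl2 for 120, 20, 30 or 10 min (JAK1, JAK2, JAK2V617F, TYK2). Finally 50 mM EDTA quenches it.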

JAK2V617F = target: T7, JAK2V617F (Homo sapiens, UniProt O60674, V617F); experiment: JAK2V617F microfluidic kinase assay (Caliper EZ Reader II, FAM labeled peptide substrate); type: biochemical; details: JAK2V617F 2.5 nM, 1 mM ATP
T7 construct: purchased Carna Biosciences
How it was run: as §1

CYP3A4 = target: T8, CYP3A4 (Homo sapiens, UniProt P08684); experiment: CYPs inhibition in pooled human liver microsomes, probe substrate Midazolam; type: in vitro ADME
T8 construct: 0.2 mg/mL human liver microsomes was pre-incubated in 180 μL reaction mixture; from tissue; host or cells: pooled human liver microsomes
Description: as §3

CYP2D6 = target: T9, CYP2D6 (Homo sapiens, UniProt P10635); experiment: CYPs inhibition in pooled human liver microsomes, probe substrate Dextromethorphan; type: in vitro ADME
T9 construct: 0.2 mg/mL human liver microsomes was pre-incubated in 180 μL reaction mixture; from tissue; host or cells: pooled human liver microsomes
Description: as §3

CYP2C19 = target: T10, CYP2C19 (Homo sapiens, UniProt P33261); experiment: CYPs inhibition in pooled human liver microsomes, probe substrate S-mephenytoin; type: in vitro ADME
T10 construct: 0.2 mg/mL human liver microsomes was pre-incubated in 180 μL reaction mixture; from tissue; host or cells: pooled human liver microsomes
Description: as §3

[4] = Rat pharmacokinetic study (intravenous and oral); type: in vivo; details: Sprague-Dawley rats, oral, solution
[5] = IC50 JAK2 ([…]) (1 mM ATP), 1 mM ATP
[6] = IC50 JAK2 ([…]) (Km ATP), Km ATP
[7] = IC50 JAK1 (5 nM) (1 m MATP), JAK1 5 nM, 1 mM ATP

T2 sequence (P23458 whole entry): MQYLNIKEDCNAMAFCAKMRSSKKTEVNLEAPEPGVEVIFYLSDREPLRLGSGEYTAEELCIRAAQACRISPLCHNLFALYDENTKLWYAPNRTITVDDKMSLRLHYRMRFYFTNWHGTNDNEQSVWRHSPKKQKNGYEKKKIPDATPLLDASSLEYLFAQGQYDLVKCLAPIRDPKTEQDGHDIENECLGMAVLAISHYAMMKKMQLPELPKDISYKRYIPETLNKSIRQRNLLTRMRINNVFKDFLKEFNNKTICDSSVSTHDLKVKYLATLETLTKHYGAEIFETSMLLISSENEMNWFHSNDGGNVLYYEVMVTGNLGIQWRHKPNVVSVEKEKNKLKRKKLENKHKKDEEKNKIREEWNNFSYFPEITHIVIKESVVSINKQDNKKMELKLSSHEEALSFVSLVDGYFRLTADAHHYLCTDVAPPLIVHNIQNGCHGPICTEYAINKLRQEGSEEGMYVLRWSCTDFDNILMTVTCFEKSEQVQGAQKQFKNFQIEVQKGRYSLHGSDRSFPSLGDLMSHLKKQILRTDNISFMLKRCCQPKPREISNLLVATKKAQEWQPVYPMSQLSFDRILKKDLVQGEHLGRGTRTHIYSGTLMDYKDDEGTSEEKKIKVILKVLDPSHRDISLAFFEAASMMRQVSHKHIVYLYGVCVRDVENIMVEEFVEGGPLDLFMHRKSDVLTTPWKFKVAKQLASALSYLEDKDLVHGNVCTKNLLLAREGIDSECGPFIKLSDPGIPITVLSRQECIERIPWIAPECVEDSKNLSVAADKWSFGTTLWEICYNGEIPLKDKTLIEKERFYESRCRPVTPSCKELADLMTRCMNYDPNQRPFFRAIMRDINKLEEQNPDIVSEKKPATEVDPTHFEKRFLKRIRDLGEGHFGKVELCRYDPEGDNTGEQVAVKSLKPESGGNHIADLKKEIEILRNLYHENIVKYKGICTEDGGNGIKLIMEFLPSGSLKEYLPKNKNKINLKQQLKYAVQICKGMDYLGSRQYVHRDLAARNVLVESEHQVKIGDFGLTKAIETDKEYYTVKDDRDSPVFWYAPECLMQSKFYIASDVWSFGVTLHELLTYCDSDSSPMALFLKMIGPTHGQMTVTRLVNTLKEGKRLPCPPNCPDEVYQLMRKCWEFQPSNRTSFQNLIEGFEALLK
T7 sequence (O60674 whole entry V617F): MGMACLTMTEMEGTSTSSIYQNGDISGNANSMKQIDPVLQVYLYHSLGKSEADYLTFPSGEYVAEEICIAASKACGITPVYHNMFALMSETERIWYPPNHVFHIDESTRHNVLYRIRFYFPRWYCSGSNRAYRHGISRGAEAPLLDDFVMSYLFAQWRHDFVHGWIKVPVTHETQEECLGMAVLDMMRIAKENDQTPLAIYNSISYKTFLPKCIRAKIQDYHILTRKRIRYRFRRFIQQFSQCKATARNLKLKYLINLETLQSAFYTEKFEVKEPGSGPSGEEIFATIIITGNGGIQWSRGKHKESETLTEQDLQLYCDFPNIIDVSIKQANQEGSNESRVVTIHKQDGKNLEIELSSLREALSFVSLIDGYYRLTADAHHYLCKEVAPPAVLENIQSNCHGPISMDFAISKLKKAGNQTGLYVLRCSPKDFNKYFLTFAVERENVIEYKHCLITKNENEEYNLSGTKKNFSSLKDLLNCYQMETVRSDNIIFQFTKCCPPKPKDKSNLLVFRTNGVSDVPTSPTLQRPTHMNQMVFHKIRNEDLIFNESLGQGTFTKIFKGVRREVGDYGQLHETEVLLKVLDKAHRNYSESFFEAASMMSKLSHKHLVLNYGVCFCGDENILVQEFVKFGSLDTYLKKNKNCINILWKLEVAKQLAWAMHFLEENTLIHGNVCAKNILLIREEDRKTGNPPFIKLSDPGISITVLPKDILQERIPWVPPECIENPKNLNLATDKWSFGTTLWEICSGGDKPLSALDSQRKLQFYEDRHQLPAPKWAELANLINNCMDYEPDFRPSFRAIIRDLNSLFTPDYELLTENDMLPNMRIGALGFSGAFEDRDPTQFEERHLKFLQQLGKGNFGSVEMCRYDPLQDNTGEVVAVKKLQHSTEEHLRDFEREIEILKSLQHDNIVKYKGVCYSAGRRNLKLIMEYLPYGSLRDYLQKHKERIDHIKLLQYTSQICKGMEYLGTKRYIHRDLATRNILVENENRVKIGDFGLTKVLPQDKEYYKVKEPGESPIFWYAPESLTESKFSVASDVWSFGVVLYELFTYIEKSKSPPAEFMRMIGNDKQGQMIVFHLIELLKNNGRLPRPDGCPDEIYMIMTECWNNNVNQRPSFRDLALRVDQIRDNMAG
T1 sequence (O60674 whole entry): as the sequence (O60674 whole entry V617F) above, with F617V counted along it
T8 sequence (P08684 whole entry): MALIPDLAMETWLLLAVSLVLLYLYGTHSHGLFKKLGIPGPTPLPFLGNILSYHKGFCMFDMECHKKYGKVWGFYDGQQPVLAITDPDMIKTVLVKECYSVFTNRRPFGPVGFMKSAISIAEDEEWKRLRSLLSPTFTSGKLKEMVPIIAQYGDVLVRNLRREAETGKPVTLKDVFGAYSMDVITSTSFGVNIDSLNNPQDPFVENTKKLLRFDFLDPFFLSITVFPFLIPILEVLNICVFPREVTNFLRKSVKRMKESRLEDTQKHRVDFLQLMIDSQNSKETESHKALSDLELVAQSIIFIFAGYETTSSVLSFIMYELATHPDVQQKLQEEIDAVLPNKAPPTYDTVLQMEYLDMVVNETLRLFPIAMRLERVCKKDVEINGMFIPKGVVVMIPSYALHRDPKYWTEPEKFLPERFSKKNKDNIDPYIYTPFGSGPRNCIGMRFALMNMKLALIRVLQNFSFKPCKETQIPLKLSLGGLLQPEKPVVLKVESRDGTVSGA
T9 sequence (P10635 whole entry): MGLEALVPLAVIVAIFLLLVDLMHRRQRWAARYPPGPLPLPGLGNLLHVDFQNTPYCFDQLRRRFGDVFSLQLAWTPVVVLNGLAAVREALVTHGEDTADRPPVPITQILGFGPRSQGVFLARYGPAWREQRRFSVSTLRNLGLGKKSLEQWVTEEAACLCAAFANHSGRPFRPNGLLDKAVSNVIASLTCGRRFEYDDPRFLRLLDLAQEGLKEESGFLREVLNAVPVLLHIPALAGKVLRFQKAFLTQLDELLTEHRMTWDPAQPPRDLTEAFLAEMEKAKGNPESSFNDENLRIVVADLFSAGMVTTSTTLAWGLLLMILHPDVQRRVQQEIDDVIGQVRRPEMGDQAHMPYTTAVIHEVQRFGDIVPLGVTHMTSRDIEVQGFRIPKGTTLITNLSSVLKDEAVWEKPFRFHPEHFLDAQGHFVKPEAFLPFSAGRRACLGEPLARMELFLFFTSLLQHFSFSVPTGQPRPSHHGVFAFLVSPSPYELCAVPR
T10 sequence (P33261 whole entry): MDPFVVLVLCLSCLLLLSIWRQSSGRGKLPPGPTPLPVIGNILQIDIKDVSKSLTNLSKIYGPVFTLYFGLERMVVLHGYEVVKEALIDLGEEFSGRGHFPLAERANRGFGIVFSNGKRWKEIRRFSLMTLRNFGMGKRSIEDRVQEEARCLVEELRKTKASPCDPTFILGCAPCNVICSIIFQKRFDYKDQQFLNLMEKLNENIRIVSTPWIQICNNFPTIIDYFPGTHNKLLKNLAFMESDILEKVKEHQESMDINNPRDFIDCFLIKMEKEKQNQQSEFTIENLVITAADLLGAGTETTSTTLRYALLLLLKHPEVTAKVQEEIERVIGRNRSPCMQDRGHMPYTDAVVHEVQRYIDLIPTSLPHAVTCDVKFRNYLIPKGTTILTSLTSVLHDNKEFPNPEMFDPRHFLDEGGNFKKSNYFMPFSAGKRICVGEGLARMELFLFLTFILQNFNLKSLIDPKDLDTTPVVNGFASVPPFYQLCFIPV
T5 sequence (P11712 whole entry): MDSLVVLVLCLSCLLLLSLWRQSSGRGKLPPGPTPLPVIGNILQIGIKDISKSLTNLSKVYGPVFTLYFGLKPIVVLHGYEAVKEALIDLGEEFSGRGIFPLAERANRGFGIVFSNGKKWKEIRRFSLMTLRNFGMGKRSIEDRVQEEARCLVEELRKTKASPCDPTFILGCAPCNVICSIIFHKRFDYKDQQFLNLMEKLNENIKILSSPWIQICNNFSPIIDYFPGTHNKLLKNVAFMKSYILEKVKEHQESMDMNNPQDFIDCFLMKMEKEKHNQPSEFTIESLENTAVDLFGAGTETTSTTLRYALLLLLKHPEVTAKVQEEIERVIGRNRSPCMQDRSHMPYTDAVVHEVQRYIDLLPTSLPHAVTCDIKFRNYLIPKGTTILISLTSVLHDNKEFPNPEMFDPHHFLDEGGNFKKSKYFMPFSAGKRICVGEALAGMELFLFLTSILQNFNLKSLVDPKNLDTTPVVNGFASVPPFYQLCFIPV

Compound | IC50 (JAK2; [5]) [nM] | IC50 (JAK2; [6]) [nM] | microsomal CLint at 1 μM [1] [µL/min/mg] | IC50 (JAK1; [7]) [nM] | AUC ([2]; intravenous, 1 mg/kg) [ng·h/mL] | Vd ([2]; intravenous, 1 mg/kg) [L/kg] | clearance ([2]; intravenous, 1 mg/kg) [mL/min/kg] | half-life ([2]; intravenous, 1 mg/kg) [min] | microsomal CLint at 1 μM [3] [µL/min/mg] | IC50 (FLT3D835Y) [nM] | IC50 (CYP1A2) [nM] | IC50 (CYP2C9) [nM] | IC50 (JAK2V617F) [nM] | IC50 (CYP3A4) [nM] | IC50 (CYP2D6) [nM] | IC50 (CYP2C19) [nM] | further results
Cc1cnc(Nc2cnn(C)c2)nc1-c1ccc(C(=O)NCC(C)(C)C#N)cc1 [Example 13, N-(2-Cyano-2-methylpropyl)-4-(5-methyl-2-((1-methyl-1H-pyrazol-4-yl)amino)pyrimidin-4-yl)benzamide] | 78.7 | 2.7 | 120 | 34.3 | 880 | 0.6 | 18.9 | 21.6 | 1.5 | 57.4 | – | – | – | – | – | – | –
Cc1cnc(Nc2cnn(C3CCN(C)CC3)c2)nc1-c1ccc(C(=O)N[C@@H](C)C#N)cc1 [Example 48, (S)—N-(1-cyanoethyl)-4-(5-methyl-2-((1-(1-methylpiperidin-4-yl)-1H-pyrazol-4-yl)amino)pyrimidin-4-yl)benzamide] | 1.02 | – | 34.5 | 3.83 | – | – | – | – | 4.64 | – | > 50000 | > 50000 | 31.7 | > 50000 | > 50000 | > 50000 | IC50 (TYK2; IC50 TYK2 ([…]) (1 mM ATP), TYK2 […], 1 mM ATP): 10.6 nM
Cc1cnc(Nc2cnn(C3CCN(CC#N)CC3)c2)nc1-c1ccc(C(=O)NCC#N)cc1 [Example 1, N-(Cyanomethyl)-4-(2-((1-(1-(cyanomethyl)piperidin-4-yl)-1H-pyrazol-4-yl)amino)-5-methylpyrimidin-4-yl)benzamide] | 1.34 | 0.42 | 15 | – | – | – | – | – | 14.9 | – | > 50000 | > 50000 | 37.8 | > 50000 | > 50000 | > 50000 | IC50 (TYK2; IC50 TYK2 (10 nM) (Km ATP), TYK2 10 nM, Km ATP): 0.84 nM; IC50 (JAK1; IC50 JAK1 (10 nM) (Km ATP), JAK1 10 nM, Km ATP): 1.79 nM
Cc1cnc(Nc2cnn(C3CCN(C(=O)C4(C)CC4)CC3)c2)nc1-c1ccc(C(=O)NCC#N)cc1 [Example 38, N-(cyanomethyl)-4-(5-methyl-2-((1-(1-(1-methylcyclopropanecarbonyl)piperidin-4-yl)-1H-pyrazol-4-yl)amino)pyrimidin-4-yl)benzamide] | < 0.25 | – | 61 | 13 | 2880 | 0.28 | 6.3 | 33.6 | 77.2 | 7.87 | – | – | < 0.25 | – | – | – | AUC ([2]; oral, 5 mg/kg): 1170 ng·h/mL; Cmax ([2]; oral, 5 mg/kg): 924 ng/mL; half-life ([2]; oral, 5 mg/kg): 84 min; F ([4]; 5 mg/kg): 8.36%
C[C@@H](C#N)NC(=O)c1ccc(-c2nc(Nc3cnn(C4CCOCC4)c3)ncc2Cl)cc1 [Example 39, (S)-4-(5-chloro-2-((1-(tetrahydro-2H-pyran-4-yl)-1H-pyrazol-4-yl)amino)pyrimidin-4-yl)-N-(1-cyanoethyl)benzamide] | – | – | 27.5 | 18.7 | 951 | 0.7 | 17.5 | 27.6 | 54.8 | – | – | – | 5.37 | – | – | – | F ([4]; 10 mg/kg): 11.99%; AUC ([4]; male, rat, plasma, 10 mg/kg): 1090 ng·h/mL; Cmax ([4]; male, rat, plasma, 10 mg/kg): 346 ng/mL; half-life ([4]; male, rat, plasma, 10 mg/kg): 106 min
